EC50 data for 43 molecules are collected here from patent US8916702B2 (priority 2012, dated 2014).

The pEC50 is the negative decadic logarithm of the EC50, by convention in mol/L.

The structures appear in SMILES notation. pEC50: −log10 of the molar value. Read-outs that look alike come from different tables or passages of the source.

For the experiment, the system named is HCV pseudoparticles (genotype 1a HCV E1 and E2 envelope, H77C isolate). The experiment can be described thus: microbe, parasite or virus in culture. The experiment is classed as cell-based. The conditions noted are these: Hepatitis C virus.
The mark [1] stands for this setting: Huh-7, 48 h, read-out: Activity (EC50 class), HCV pseudoparticle infection of Huh7 cells, luciferase 2 days after infection, EC50 expressed as class A/B.
The mark [2] stands for this setting: Huh-7, read-out: Activity (EC50 class), HCV pseudoparticles (genotype 1a, H77C) in Huh7 cells, EC50 expressed as class A/B.
[3] abbreviates: Huh-7, 48 h, HCV pseudoparticles (genotype 1a, H77C) in Huh7 cells, average of duplicate, luciferase 2 days after infection.
[4] abbreviates: Huh-7, 48 h, HCV pseudoparticle infection of Huh7 cells, luciferase 2 days after infection, average of duplicates.
Where [5] appears, read: Huh-7, 48 h, HCV pseudoparticles, Huh7 cells, luciferase 2 days after infection, average of duplicates.
[6] abbreviates: Huh-7, 48 h, read-out: Activity (EC50 class), HCV pseudoparticles, Huh7 cells, luciferase 2 days after infection, average of duplicates.

`COC(=O)[C@@H](CCNC(=O)C(=O)NCC1(CO)CC1)NC(=O)c1ccc(Nc2nc(NC3(c4ccc(Cl)cc4)CC3)nc(OCC(F)(F)F)n2)cc1` [Compound 1380]: the pEC50 under setting [1] is 8.00 to 11.00.

`CCOC(=O)[C@H](CCCNC(=O)C(=O)N(C)C)NC(=O)c1ccc(Nc2nc(NC3(c4ccc(Cl)cc4)CC3)nc(OCC(F)(F)F)n2)cc1` [Compound 1031, (S)-ethyl 2-(4-(4-(1-(4-chlorophenyl)cyclopropylamino)-6-(2,2,2-trifluoroethoxy)-1,3,5-triazin-2-ylamino)benzamido)-5-(2-(dimethylamino)-2-oxoacetamido)pentanoate]: the pEC50 under setting [1] was 8.00 to 11.00.

On to `O=C(NCC[C@H](NC(=O)c1ccc(Nc2nc(NC3(c4ccc(Cl)cc4)CC3)nc(OCC(F)(F)F)n2)cc1)C(=O)O)C(=O)Nc1ccc(F)c(F)c1F` [Compound 1509], for which the pEC50 under setting [1] is 8.00 to 11.00.

Turning to `CCC1CCC(NC(=O)C(=O)NCC[C@H](NC(=O)c2ccc(Nc3nc(NC4(c5ccc(Cl)cc5)CC4)nc(OCC(F)(F)F)n3)cc2)C(=O)OC)CC1` (stereo partly drawn) [Compound 1103], under setting [1], the negative-log EC50 (pEC50) was 8.00 to 11.00.

With `CCc1ccc(NC(=O)C(=O)NCC[C@H](NC(=O)c2ccc(Nc3nc(NC4(c5ccc(Cl)cc5)CC4)nc(OCC(F)(F)F)n3)cc2)C(=O)OC)cc1` [Compound 3330], the pEC50 under setting [2] was 8.00 to 11.00.

In the case of `COc1ncccc1NC(=O)C(=O)NCC(C)(C)CNC(=O)c1ccc(Nc2nc(NC3(c4ccc(Cl)cc4)CC3)nc(OCC(F)(F)F)n2)cc1` [Compound 3366], the pEC50 under setting [3] was 9.85 and the pEC50 under setting [2] was 8.00 to 11.00.

In the case of `COC(=O)[C@H](CCNC(=O)C(=O)NC(COCc1ccccc1)C1CC1)NC(=O)c1ccc(Nc2nc(NC3(c4ccc(Cl)cc4)CC3)nc(OCC(F)(F)F)n2)cc1` (stereo partly drawn) [Compound 1370], the pEC50 under setting [1] was 8.00 to 11.00.

Take `CCc1ccc(NC(=O)C(=O)NCC[C@H](NC(=O)c2ccc(Nc3nc(NC4(c5ccc(Cl)cc5)CC4)nc(OCC(F)(F)F)n3)cc2)C(=O)O)cc1` [Compound 3551]: the pEC50 under setting [2] is 8.00 to 11.00.

Take `COc1ccc(NC(=O)C(=O)NC[C@H](NC(=O)c2ccc(Nc3nc(NC4(c5ccc(Cl)cc5)CC4)nc(OCC(F)(F)F)n3)cc2)C(=O)O)cc1` [Compound 1362]: the pEC50 by setting is: under setting [4], 9.52; under setting [1], 8.00 to 11.00.

Take `COC(=O)[C@H](CCNC(=O)C(=O)Nc1ccc(C(F)(F)F)cc1)NC(=O)c1ccc(Nc2nc(NC3(c4ccc(Cl)cc4)CC3)nc(OCC(F)(F)F)n2)cc1` [Compound 1233]: the pEC50 under setting [1] was 8.00 to 11.00.

Turning to `O=C(NCC1(CNC(=O)c2ccc(Nc3nc(NC4(c5ccc(Cl)cc5)CC4)nc(OCC(F)(F)F)n3)cc2)CC1)C(=O)Nc1cccc(F)c1` [Compound 3001], the pEC50 under setting [2] is 8.00 to 11.00.

For the molecule `COC(=O)[C@H](CNC(=O)C(=O)Nc1ccc(Cn2ccnc2C)cc1)NC(=O)c1ccc(Nc2nc(NC3(c4ccc(Cl)cc4)CC3)nc(OCC(F)(F)F)n2)cc1` [Compound 3204], the pEC50 under setting [2] is 8.00 to 11.00.

Consider `CCc1cccc(NC(=O)C(=O)NC[C@H](NC(=O)c2ccc(Nc3nc(NC4(c5ccc(Cl)cc5)CC4)nc(OCC(F)(F)F)n3)cc2)C(=O)Cl)c1` [Compound 3744], for which the pEC50 was 8.93 under setting [5] and 8.00 to 11.00 under setting [6].

For the molecule `CC1CCCCC1NC(=O)C(=O)NC[C@H](NC(=O)c1ccc(Nc2nc(NC3(c4ccc(Cl)cc4)CC3)nc(OCC(F)(F)F)n2)cc1)C(=O)O` (stereo partly drawn) [Compound 1089], under setting [1], the pEC50 was 8.00 to 11.00.

On to `CC(C)(CNC(=O)C(=O)Nc1ccccc1)CNC(=O)c1ccc(Nc2nc(NC3(c4ccc(Cl)cc4)CC3)nc(OCC(F)(F)F)n2)cc1` [Compound 1537], for which the negative-log EC50 (pEC50) under setting [1] is 8.00 to 11.00.

For `CC(C)(CNC(=O)C(=O)Nc1ccc2ncccc2c1)CNC(=O)c1ccc(Nc2nc(NC3(c4ccc(Cl)cc4)CC3)nc(OCC(F)(F)F)n2)cc1` [Compound 3038], under setting [2], the pEC50 is 8.00 to 11.00.

Turning to `O=C(NCCCCNC(=O)c1ccc(Nc2nc(NC3(c4ccc(Cl)cc4)CC3)nc(OCC(F)(F)F)n2)cc1)C(=O)N1CCCCC1` [Compound 3401], the pEC50 under setting [2] was 8.00 to 11.00.

With `COc1cc(Nc2nc(NC3(c4ccc(Cl)cc4)CC3)nc(OCC(F)(F)F)n2)ccc1C(=O)NCC(C)(C)CNC(=O)C(N)=O` [Compound 3387], the pEC50 is, setting by setting: under setting [3], 10.17; under setting [2], 8.00 to 11.00.

With `CC(C)n1ccc(NC(=O)C(=O)NCC(C)(C)CNC(=O)c2ccc(Nc3nc(NC4(c5ccc(Cl)cc5)CC4)nc(OCC(F)(F)F)n3)cc2)n1` [Compound 3836], the pEC50 under setting [6] was 8.00 to 11.00.

Regarding `COC(=O)[C@@H](CCNC(=O)C(=O)Nc1ccc(OCCC2C(=O)c3ccccc3C2=O)nc1)NC(=O)c1ccc(Nc2nc(NC3(c4ccc(Cl)cc4)CC3)nc(OCC(F)(F)F)n2)cc1` [Compound 3569], the pEC50 under setting [2] is 8.00 to 11.00.

For the molecule `CC(C)CNC(=O)C(=O)NCC(C)CNC(=O)c1ccc(Nc2nc(NC3(c4ccc(Cl)cc4)CC3)nc(OCC(F)(F)F)n2)cc1` (stereo not drawn) [Compound 3476], under setting [2], the pEC50 is 8.00 to 11.00.

`O=C(NCCCCNC(=O)c1ccc(Nc2nc(NC3(c4ccc(Cl)cc4)CC3)nc(OCC(F)(F)F)n2)cc1)C(=O)NCc1ccc(F)cc1` [Compound 3392]: under setting [2], the pEC50 is 8.00 to 11.00.

Regarding `CCN(CC)CCOc1cccc(NC(=O)C(=O)NCC[C@H](NC(=O)c2ccc(Nc3nc(NC4(c5ccc(Cl)cc5)CC4)nc(OCC(F)(F)F)n3)cc2)C(=O)O)c1` [Compound 3658], the pEC50 under setting [6] is 8.00 to 11.00.

For the molecule `Cc1ccccc1-c1ccc(NC(=O)C(=O)NCCC(NC(=O)c2ccc(Nc3nc(NC4(c5ccc(Cl)cc5)CC4)nc(OCC(F)(F)F)n3)cc2)C(=O)O)cc1` (stereo not drawn) [Compound 3525], the pEC50 under setting [2] was 6.00 to 8.00.

Regarding `CC(C)(CNC(=O)C(=O)Nc1ccc(-c2cscn2)cc1)CNC(=O)c1ccc(Nc2nc(NC3(c4ccc(Cl)cc4)CC3)nc(OCC(F)(F)F)n2)cc1` [Compound 1595], the pEC50 under setting [1] was 8.00 to 11.00.

For `CC(C)(CNC(=O)C(=O)Nc1ccc(C(F)(F)F)cc1C#N)CNC(=O)c1ccc(Nc2nc(NC3(c4ccc(Cl)cc4)CC3)nc(OCC(F)(F)F)n2)cc1` [Compound 3435], the pEC50 under setting [2] is 8.00 to 11.00.

Regarding `O=C(Nc1cc(F)cc(F)c1)C(=O)N(CCO)CCCNC(=O)c1ccc(Nc2nc(NC3(c4ccc(Cl)cc4)CC3)nc(OCC(F)(F)F)n2)cc1` [Compound 3507], the pEC50 under setting [2] was 8.00 to 11.00.

`COC(=O)/C(CCNC(=O)C(=O)NC1CCCC(S(=O)(=O)c2ccccc2)C1)=N\C(=O)c1ccc(Nc2nc(NC3(c4ccc(Cl)cc4)CC3)nc(OCC(F)(F)F)n2)cc1` (stereo not drawn) [Compound 3584]: the pEC50 under setting [2] is 6.00 to 8.00.

For `COc1ccc(NC(=O)C(=O)NCC(C)(C)CNC(=O)c2ccc(Nc3nc(NC4(c5ccc(Cl)cc5)CC4)nc(OCC(F)(F)F)n3)cc2)c(OC)c1` [Compound 3067], the pEC50 under setting [2] is 8.00 to 11.00.

With `CC(C)(CNC(=O)C(=O)Nc1ccc(-c2nc3ccccc3o2)cc1)CNC(=O)c1ccc(Nc2nc(NC3(c4ccc(Cl)cc4)CC3)nc(OCC(F)(F)F)n2)cc1` [Compound 3831], under setting [6], the pEC50 is 8.00 to 11.00.

For `C=Cc1ccc(NC(=O)C(=O)NCC(C)(C)CNC(=O)c2ccc(Nc3nc(NC4(c5ccc(Cl)cc5)CC4)nc(OCC(F)(F)F)n3)cc2)cc1` [Compound 1604], the pEC50 was 10.70 under setting [4] and 8.00 to 11.00 under setting [1].

Take `O=C(NCC[C@H](NC(=O)c1ccc(Nc2nc(NC3(c4ccc(Cl)cc4)CC3)nc(OCC(F)(F)F)n2)cc1)C(=O)O)C(=O)NCC1CC1c1cccc2c1OCO2` (stereo partly drawn) [Compound 1446]: the pEC50 under setting [1] is 8.00 to 11.00.

`O=C(NC[C@H](NC(=O)c1ccc(Nc2nc(NC3(c4ccc(Cl)cc4)CC3)nc(OCC(F)(F)F)n2)cc1)C(=O)Cl)C(=O)Nc1cccc(-n2ccnc2)c1` [Compound 3789]: under setting [6], the pEC50 is 8.00 to 11.00.

In the case of `COC(=O)[C@H](CCNC(=O)C(=O)Nc1cccc(C2=NC(C)=CC2)c1)NC(=O)c1ccc(Nc2nc(NC3(c4ccc(Cl)cc4)CC3)nc(OCC(F)(F)F)n2)cc1` [Compound 3601], the pEC50 under setting [6] is 8.00 to 11.00.

For the molecule `COC(=O)/C(CCNC(=O)C(=O)Nc1ccc(C(F)(F)F)nc1)=N\C(=O)c1ccc(Nc2nc(NC3(c4ccc(Cl)cc4)CC3)nc(OCC(F)(F)F)n2)cc1` [Compound 3594], the pEC50 under setting [2] was 8.00 to 11.00.

Turning to `COC(=O)[C@H](CCNC(=O)C(=O)NC1CCCCC1O)NC(=O)c1ccc(Nc2nc(NC3(c4ccc(Cl)cc4)CC3)nc(OCC(F)(F)F)n2)cc1` (stereo partly drawn) [Compound 1098], the pEC50 under setting [1] is 8.00 to 11.00.

Regarding `CCc1cccc(NC(=O)C(=O)NC[C@H](NC(=O)c2ccc(Nc3nc(NC4(c5ccc(Cl)cc5)CC4)nc(OCC(F)(F)F)n3)cc2)C(=O)OC)c1` [Compound 3688], the pEC50 runs as follows: under setting [5], 9.01; under setting [6], 8.00 to 11.00.

Turning to `COC(=O)[C@H](CNC(=O)C(=O)Nc1cccc(F)c1)NC(=O)c1ccc(Nc2nc(NC3(c4ccc(Cl)cc4)CC3)nc(OCC(F)(F)F)n2)cc1` [Compound 1249], under setting [1], the pEC50 was 8.00 to 11.00.

As to `O=C(NCC[C@@H](NC(=O)c1ccc(Nc2nc(NC3(c4ccc(Cl)cc4)CC3)nc(OCC(F)(F)F)n2)cc1)C(=O)O)C(=O)Nc1ccc(F)c(F)c1F` [Compound 1538], the pEC50 under setting [1] was 8.00 to 11.00.

On to `O=C(NC[C@H](NC(=O)c1ccc(Nc2nc(NC3(c4ccc(Cl)cc4)CC3)nc(OCC(F)(F)F)n2)cc1)C(=O)O)C(=O)Nc1ccc(Oc2ccccc2)nc1` [Compound 3771], for which the pEC50 under setting [6] is 8.00 to 11.00.

Turning to `C=Cc1cccc(NC(=O)C(=O)NCC[C@@H](NC(=O)c2ccc(Nc3nc(NC4(c5ccc(Cl)cc5)CC4)nc(OCC(F)(F)F)n3)cc2)C(=O)OC)c1` [Compound 3574], under setting [2], the pEC50 was 8.00 to 11.00.

For `O=C(NCCC(NC(=O)c1ccc(Nc2nc(NC3(c4ccc(Cl)cc4)CC3)nc(OCC(F)(F)F)n2)cc1)C(=O)O)C(=O)Nc1ccc(CN2CCCCC2)cc1` (stereo not drawn) [Compound 3534], the pEC50 by setting is: under setting [3], 8.12; under setting [2], 8.00 to 11.00.

Turning to `COC(=O)[C@H](CNC(=O)C(=O)Nc1ccc(C(F)(F)F)cc1)NC(=O)c1ccc(Nc2nc(NC3(c4ccc(Cl)cc4)CC3)nc(OCC(F)(F)F)n2)cc1` [Compound 1255], the pEC50 reads like this: under setting [4], 8.96; under setting [1], 8.00 to 11.00.
